The values that follow come from patent US20120071475A1, “UREA DERIVATIVES HAVING PI3K-INHIBITING ACTIVITY” (SHIONOGI & CO., LTD., priority 2009, published 2012).

Some results are limits rather than exact numbers.

In one data set the target is PI3Kγ (Homo sapiens, UniProt P48736). The data set is described as follows: PI3Kγ inhibitory activity (PI3-kinase HTRF assay, inhibition ratio). The class given is biochemical. Conditions: compound at 10 μmol/L; for inhibition at 10 µM: 0.5 h, read-out: PI3Kg Inhibition Ratio % (10 μM). The procedure:
For each compound synthesized in the above Examples, PI3Kγ inhibitory activity was measured.
The PI3Kγ inhibitory activity of a compound was evaluated using PI3-kinase HTRF™ assay (Millipore) according to the following procedure:
To each well of a testing plate, 5 μL of a compound solution containing 10% DMSO (40 μmol/L as the concentration of the compound), 5 μL of a substrate solution (40 μmol/L phosphatidylinositol (4,5)-bisphosphate, 20 mmol/L MgCl2, 10 mmol/L DTT), and 5 μL of an enzyme solution (80 μg/mL PI-3 kinase y, 10 mmol/L MgCl2, 5 mmol/L DTT) were added, and then allowed to stand for 10 minutes.
Then, 5 μL of a reaction solution (40 μmol/L ATP, 10 mmol/L MgCl2, 5 mmol/L DTT) was added thereto. After reacting for 30 minutes at room temperature, 5 μL of a solution containing EDTA and biotinylated phosphatidylinositol (3,4,5)-triphosphate was added to quench the reaction.
5 μL of a detection reagent containing a europium-labeled anti-GST antibody, the GST-tagged PH domain, and allophycocyanin-labeled streptavidin was added thereto. After 18 hours, HTRF (excitation wavelength: 330 nm, measured wavelengths: 620 nm and 665 nm) was measured.
HTRF ratio was defined as the value obtained by dividing the amount of fluorescence obtained at the measured wavelength 665 nm by the amount of fluorescence obtained at 620 nm. The HTRF ratio in the absence of a compound was defined as 100% activity and the HTRF ratio in the absence of PI-3 kinase y was defined as 0% activity to calculate an inhibition ratio, which was defined as the PI3Kγ inhibitory activity of a compound at 10 μmol/L.
Background: TR-FRET usually uses a lanthanide donor and a delayed reading to cut background.

Data set [1] can be described thus: Metabolic stability test (pooled human liver microsome). The class given is in vitro ADME. Conditions: percentage of test compound remained after 30 minutes, pooled human liver microsome 0.5 mg protein/mL, 1 mmol/L NADPH, 37° C.; for hLMS_ox(at 0.5 μM) %: compound 0.5 μM. On the procedure:
After a subject compound was reacted for a certain time using a pooled human liver microsome commercially available, a reacted sample and an unreacted sample are compared to calculate a survival ratio, and then the degree of metabolism in the liver was evaluated.
0.2 mL of a buffer solution (50 mmol/L of Tris-HCl in pH 7.4, 150 mmol/L of potassium chloride, and 10 mmol/L of magnesium chloride) containing a human liver microsome of 0.5 mg protein/mL was reacted in the presence of 1 mmol/L NADPH at 37° C. for 0 or 30 minutes (oxidative reaction). After reacting, 50 μL of the reaction solution was added to 100 μL of a solution of methanol/acetonitrile (1/1 (v/v)), mixed, and then centrifuged at 3000 rpm for 15 minutes. The test compound in the supernatant was quantitated with LC/MS/MS. The amount of the compound at a reaction time of 0 minute was defined as 100% and, based on that, the percentage of the test compound remained after reacting for 30 minutes was calculated.

Chain of PI3Kγ (P48736 whole entry, species assumed): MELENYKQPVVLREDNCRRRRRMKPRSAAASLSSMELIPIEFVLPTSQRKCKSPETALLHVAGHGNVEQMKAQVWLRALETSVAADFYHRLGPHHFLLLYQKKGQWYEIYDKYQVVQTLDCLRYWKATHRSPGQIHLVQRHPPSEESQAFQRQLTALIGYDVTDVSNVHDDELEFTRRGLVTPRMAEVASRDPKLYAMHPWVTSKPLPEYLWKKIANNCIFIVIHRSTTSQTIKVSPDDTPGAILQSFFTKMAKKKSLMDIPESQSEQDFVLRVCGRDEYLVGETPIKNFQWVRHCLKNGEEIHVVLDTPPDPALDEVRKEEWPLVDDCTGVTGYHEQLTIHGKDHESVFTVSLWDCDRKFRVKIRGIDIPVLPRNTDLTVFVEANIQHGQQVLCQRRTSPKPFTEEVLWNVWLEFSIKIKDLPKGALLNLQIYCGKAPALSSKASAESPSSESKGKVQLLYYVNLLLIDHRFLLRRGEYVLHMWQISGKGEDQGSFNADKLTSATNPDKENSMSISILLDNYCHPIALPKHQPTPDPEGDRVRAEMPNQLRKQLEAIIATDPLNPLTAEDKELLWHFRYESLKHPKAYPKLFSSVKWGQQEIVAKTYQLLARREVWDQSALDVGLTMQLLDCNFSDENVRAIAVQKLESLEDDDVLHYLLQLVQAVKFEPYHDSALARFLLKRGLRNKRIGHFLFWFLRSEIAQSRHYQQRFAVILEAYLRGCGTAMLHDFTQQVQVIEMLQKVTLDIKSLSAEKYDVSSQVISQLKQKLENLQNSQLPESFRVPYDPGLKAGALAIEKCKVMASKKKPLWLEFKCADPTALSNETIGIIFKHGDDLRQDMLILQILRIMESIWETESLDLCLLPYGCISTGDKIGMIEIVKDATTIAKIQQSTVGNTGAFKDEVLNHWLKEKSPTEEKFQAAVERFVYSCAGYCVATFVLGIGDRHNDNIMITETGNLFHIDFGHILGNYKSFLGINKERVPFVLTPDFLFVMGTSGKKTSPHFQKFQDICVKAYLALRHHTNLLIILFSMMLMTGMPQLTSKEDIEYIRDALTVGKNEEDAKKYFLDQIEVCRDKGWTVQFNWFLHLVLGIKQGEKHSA

Turning to `COc1cc(N2CCc3nc(NC(=O)Nc4ccsc4C(=O)NC(C)(C)C)sc3C2)nc(OC)n1` [Compound I-26], on PI3Kγ, the inhibition at 10 µM was no less than 95%.

With `COc1cc(N2CCc3nc(NC(=O)Nc4ccccc4C(=O)CCC(C)C)sc3C2)nc(OC)n1` [Compound I-66], the inhibition at 10 µM at PI3Kγ was no less than 95%.

Regarding `O=C(Nc1nc2c(s1)CN(c1ccnc(Cl)n1)CC2)Nc1ccccc1C(=O)NCCO` [Compound I-99], the inhibition at 10 µM at PI3Kγ was no less than 95%. Further, the “hLMS_ox(at 0.5 μM) %” value in data set [1] is 90.6%.

With `CC(C)NC(=O)c1nn(C)cc1NC(=O)Nc1nc2c(s1)CN(c1cc[nH]c(=O)c1)CC2` [Compound I-184], the inhibition at 10 µM on PI3Kγ was 75%. The “hLMS_ox(at 0.5 μM) %” value in data set [1] is reported as 98.1%.

As to `COc1cc(N2CCc3nc(NC(=O)N[C@@H]4C[C@H]4C(=O)NC(C)C)sc3C2)nc(OC)n1` [Compound I-130], the “hLMS_ox(at 0.5 μM) %” value in data set [1] came out at 104%.

`COC(=O)c1ccccc1NC(=O)Nc1nc2c(s1)CN(c1cc(OC)nc(OC)n1)CC2` [Compound I-6]: the inhibition at 10 µM on PI3Kγ is no less than 95%.

In the case of `COc1ccc(-c2ccc3nc(NC(=O)Nc4ccccc4OCCC(C)C)sc3n2)cn1` [Compound I-220], on PI3Kγ, the inhibition at 10 µM was no less than 95%.

Take `COc1cc(N2CCc3nc(NC(=O)Nc4ccccc4OCC(C)C)sc3C2)nc(OC)n1` [Compound I-47]: the inhibition at 10 µM at PI3Kγ is no less than 95%.

On to `COc1ccc(-c2ccc3nc(NC(=O)Nc4ccccc4OCCC(C)C)sc3c2)cn1` [Compound I-215], for which the inhibition at 10 µM on PI3Kγ is no less than 95%.

Turning to `COc1cc(N2CCc3nc(NC(=O)Nc4ccccc4C(=O)NC(C)CO)sc3C2)nc(OC)n1` (stereo not drawn) [Compound I-87], at PI3Kγ, the inhibition at 10 µM is no less than 95%. In addition, the “hLMS_ox(at 0.5 μM) %” value in data set [1] was determined as 91.9%.

For the compound `COc1cc(N2CCc3nc(NC(=O)Nc4ccccc4S(=O)(=O)NC(C)C)sc3C2)nc(OC)n1` [Compound I-171], at PI3Kγ, the inhibition at 10 µM turned out to be 85%.

As to `CC(=O)c1cccc(-c2cc(NC(=O)Nc3ccccc3OCCC(C)C)nn2C)c1` [Compound I-222], the inhibition at 10 µM on PI3Kγ was no less than 95%.

For `CC(=O)c1cccc(-c2ccc3nc(NC(=O)Nc4ccccc4OCCC(C)C)sc3c2)c1` [Compound I-214], the inhibition at 10 µM at PI3Kγ is no less than 95%.

Regarding `COC(=O)C(C)(C)NC(=O)c1ccccc1NC(=O)Nc1nc2c(s1)CN(c1cc(OC)nc(OC)n1)CC2` [Compound I-17], at PI3Kγ, the inhibition at 10 µM is no less than 95%.

For `COc1ccc(-c2ccc3nc(NC(=O)Nc4ccccc4OCCC(C)C)nn3c2)cn1` [Compound I-218], the inhibition at 10 µM on PI3Kγ stood at 90%.

As for `COc1cc(N2CCc3nc(NC(=O)Nc4ccccc4O)sc3C2)nc(OC)n1` [Compound I-177], the inhibition at 10 µM at PI3Kγ was 88%.

Turning to `C[C@@H](CO)NC(=O)c1ccccc1NC(=O)Nc1nc2c(s1)CN(c1ccc(C(F)(F)F)cc1)CC2` [Compound I-206], the inhibition at 10 µM on PI3Kγ was found to be 87%.

On to `COc1cc(N2CCc3nc(NC(=O)Nc4ccccc4C(=O)NN(C)C)sc3C2)nc(OC)n1` [Compound I-194], for which the “PI3Kg Inhibition Ratio % (10 μM)” value on PI3Kγ is given as 92%.

Consider `COc1ccc(-c2cc(NC(=O)Nc3ccccc3C(=O)NC(C)C)nn2C)cn1` [Compound I-228], for which the inhibition at 10 µM on PI3Kγ worked out at 88%.

For the compound `COC(=O)c1ccncc1NC(=O)Nc1nc2c(s1)CN(c1cc(OC)nc(OC)n1)CC2` [Compound I-21], the inhibition at 10 µM at PI3Kγ amounted to 74%.

As for `CC(CO)NC(=O)c1ccccc1NC(=O)Nc1nc2c(s1)CN(c1ccnc(F)c1)CC2` (stereo not drawn) [Compound I-122], the inhibition at 10 µM at PI3Kγ is no less than 95%. Further, the “hLMS_ox(at 0.5 μM) %” value in data set [1] is given as 90.6%.

For `CC(CO)NC(=O)c1ccccc1NC(=O)Nc1nc2c(s1)CN(c1cc(F)cc(F)c1)CC2` (stereo not drawn) [Compound I-119], the inhibition at 10 µM on PI3Kγ is no less than 95%. In addition, the “hLMS_ox(at 0.5 μM) %” value in data set [1] came out at 90.8%.

Consider `COc1cc(N2CCc3nc(NC(=O)Nc4cccc5c4C(=O)N(C(C)C)C5)sc3C2)nc(OC)n1` [Compound I-201], for which the inhibition at 10 µM at PI3Kγ was 78%.

Take `CC(C)NC(=O)c1nn(C)cc1NC(=O)Nc1nc2c(s1)CN(c1cncc(C(F)(F)F)c1)CC2` [Compound I-132]: at PI3Kγ, the inhibition at 10 µM was 85%.

Consider `Cc1cc(N2CCc3nc(NC(=O)Nc4ccccc4C(=O)NC(C)C)sc3C2)nc(C#N)n1` [Compound I-181], for which the inhibition at 10 µM on PI3Kγ came out at 79%. In addition, the “hLMS_ox(at 0.5 μM) %” value in data set [1] worked out at 85.9%.

Regarding `COc1cc(N2CCc3nc(NC(=O)Nc4ccc(F)cc4C(=O)NC(C)C)sc3C2)nc(OC)n1` [Compound I-32], on PI3Kγ, the inhibition at 10 µM is no less than 95%.

As for `COC(=O)c1sccc1NC(=O)Nc1nc2c(s1)CN(c1cc(OC)nc(OC)n1)CC2` [Compound I-2], the inhibition at 10 µM at PI3Kγ turned out to be 69%.

With `COc1cc(N2CCc3nc(NC(=O)Nc4ccccc4NC(=O)C(C)(C)C)sc3C2)nc(OC)n1` [Compound I-44], at PI3Kγ, the inhibition at 10 µM was no less than 95%.

With `COCC(C)NC(=O)c1ccccc1NC(=O)Nc1nc2c(s1)CN(c1cc(OC)nc(OC)n1)CC2` (stereo not drawn) [Compound I-18], the inhibition at 10 µM on PI3Kγ came out at 94%.

Take `Cc1cc(N2CCc3nc(NC(=O)Nc4cn(C)nc4C(=O)NC(C)C)sc3C2)nc(Cl)n1` [Compound I-164]: the inhibition at 10 µM on PI3Kγ was 93%.

Turning to `COc1cc(N2CCc3nc(NC(=O)Nc4ccccc4C(=O)OC(C)(C)C)sc3C2)nc(OC)n1` [Compound I-3], the inhibition at 10 µM at PI3Kγ was no less than 95%. Moreover, in data set [1] (compound 2 μM), the “hLMS_ox(at 2 μM) %” value was determined as 82%.

`CO/N=C(\C)c1ccccc1NC(=O)Nc1nc2c(s1)CN(c1cc(OC)nc(OC)n1)CC2` [Compound I-196]: the inhibition at 10 µM on PI3Kγ turned out to be 83%.

Turning to `COc1cc(N2CCc3nc(NC(=O)Nc4ccccc4C(=O)N(C)C(C)(C)C)sc3C2)nc(OC)n1` [Compound I-11], the inhibition at 10 µM at PI3Kγ was 94%.

For the compound `COc1nccc(N2CCc3nc(NC(=O)Nc4ccccc4OCCC(C)C)sc3C2)n1` [Compound I-96], the inhibition at 10 µM on PI3Kγ was no less than 95%.

In the case of `COc1cc(N2CCc3nc(NC(=O)Nc4ccccc4C(=O)N4CCCCC4)sc3C2)nc(OC)n1` [Compound I-8], on PI3Kγ, the inhibition at 10 µM was 93%.

On to `CC(CO)NC(=O)c1ccccc1NC(=O)Nc1nc2c(s1)CN(c1ccc(F)c(F)c1)CC2` (stereo not drawn) [Compound I-118], for which the inhibition at 10 µM at PI3Kγ was no less than 95%. Moreover, the “hLMS_ox(at 0.5 μM) %” value in data set [1] is given as 89.8%.

Regarding `CC(=O)c1cccc(-c2ccc3nc(NC(=O)Nc4ccccc4OCCC(C)C)nn3c2)c1` [Compound I-217], the inhibition at 10 µM at PI3Kγ is 88%.

As to `COc1cc(N2CCc3nc(NC(=O)Nc4ccccc4C(=O)NC(C)(C)CO)sc3C2)nc(OC)n1` [Compound I-15], the inhibition at 10 µM on PI3Kγ is 94%.

Take `COc1cc(N2CCc3nc(NC(=O)Nc4ccccc4C(=O)NC(C)(C)C#N)sc3C2)nc(OC)n1` [Compound I-25]: the inhibition at 10 µM at PI3Kγ was no less than 95%.

Regarding `COC(=O)c1ccsc1NC(=O)Nc1nc2c(s1)CN(c1cc(OC)nc(OC)n1)CC2` [Compound I-1], the inhibition at 10 µM at PI3Kγ is 79%.

Take `COc1cc(N2CCc3nc(NC(=O)Nc4ccccc4CC(C)C)sc3C2)nc(OC)n1` [Compound I-68]: on PI3Kγ, the inhibition at 10 µM was no less than 95%.

Regarding `COc1cc(N2CCc3nc(NC(=O)Nc4ccccc4C(O)CC(C)C)sc3C2)nc(OC)n1` (stereo not drawn) [Compound I-116], the inhibition at 10 µM at PI3Kγ is no less than 95%.

For `COc1cc(N2CCc3nc(NC(=O)Nc4ccccc4C(=O)NCCO)sc3C2)nc(OC)n1` [Compound I-85], at PI3Kγ, the inhibition at 10 µM was no less than 95%. The “hLMS_ox(at 0.5 μM) %” value in data set [1] came to 90.2%.

Turning to `C[C@H](CO)NC(=O)c1ccccc1NC(=O)Nc1nc2c(s1)CN(c1ccc(C(F)(F)F)cc1)CC2` [Compound I-207], the inhibition at 10 µM on PI3Kγ amounted to 93%. Also, the “hLMS_ox(at 0.5 μM) %” value in data set [1] is recorded as 93.5%.
